This is an account of results in US20090197867A1, “ENANTIOMERICALLY ENRICHED IMIDAZOAZEPINONE COMPOUNDS” (priority 2007, published 2009).

One experiment relates to CIA mouse. Kind of experiment: Suppression of arthritis development in CIA (active immunization). The format is in vivo. The settings on record: DBA1/J mice, oral dosing once daily, read-out: Arthritis Model Approx ED50, Active Immunization (CIA mouse). From the text: Suppression of arthritis development in CIA. DBA1/J mice were immunized with bCII/CFA at day 0 then boosted at day 21 with bCII/IFA. Arthritis development was monitored over the course of study. The arthritis score is as follows: 0=normal paw, score of 1=1-2 digit inflamed paws; score of 2=3 digits or 1-2 digit+wrist or ankle inflamed, score of 3=hand+more than 2 digits inflamed; and score of 4=multiple digits (3-4)+important wrist or ankle inflammation.
(A) Partial therapeutic evaluation of compounds. Active compound was given by oral dosing once daily at the dose indicated from day 20 after induction of antibodies to collagen II but before disease development. (B) Full therapeutic evaluation of compound. Active compound was given after disease was developed (from day 7 after the second immunization). (C) X-ray analysis of mouse paws from full therapeutic CIA study. X-ray score is the index of measurement of combination of osteopenia, bone erosion and new bone formation. (D) Representative X-ray radiographs.

For another experiment, the system named is CAIA mouse. The experiment is described as follows: Suppression of arthritis development in CAIA (passive immunization). Type of experiment: in vivo. The settings on record: BALB/c mice, once daily PO day 0 to day 7. As to the method: Suppression of arthritis development in CAIA. BALB/c mice were injected i.v. with 1 mg of anti-type II collagen antibody at day 0, and 3 days later 25 μg of LPS was injected i.p. with active compound and methotrexate (MTX) was given once daily PO from day 0 to day 7. Arthritis score and body weight was monitored over the course of study.

SMILES strings stand for the structures.

For the molecule `CCN1C(=O)N2Cc3cc(OC)cc(OC)c3[C@@H](C)C=C2C12CCN(Cc1cc(C)cc(C)c1)CC2` [ER-819762-01], the ED50 (as a rule, the midpoint of the dose-response relation) is ~3 mg/kg with CIA mouse and 30 to 60 mg/kg with CAIA mouse (Mus musculus, read-out: Arthritis Model Approx ED50, Passive Immunization (CAIA mouse)).
Regarding `CCN1C(=O)N2Cc3cc(OC)cc(OC)c3[C@@H](C)C=C2C12CCN(Cc1cccn1C)CC2` [ER-819924-01], the ED50 in the experiment on CIA mouse lay in the range of 3 to 10 mg/kg.
Still for that read-out and setting: next, `CCN1C(=O)N2Cc3cc(OC)cc(OC)c3[C@@H](C)C=C2C12CCN(Cc1cc(C)nn1C)CC2` [ER-819973-01]: 3 to 10 mg/kg.
Turning to `CN(Cc1cnc2nc(N)nc(N)c2n1)c1ccc(C(=O)N[C@@H](CCC(=O)O)C(=O)O)cc1` [methotrexate, reference compound], in the experiment with CAIA mouse, the “activity in the CAIA model (arthritis score)” value is “not particularly active”.
